Data reported in patent US20210308034A1, “PREBIOTIC COMPOSITIONS AND METHODS FOR MAINTAINING A HEALTHY SKIN MICROBIOTA” (KIMBERLY-CLARK WORLDWIDE, INC., priority 2018, published 2021).
Where a SMILES comes first, the peptide text is derived from it.

What was measured:
Format in all cases: cell-based
[1] = test system: commensal and pathogenic skin bacteria; assay: Carbohydrate Screening Test Method, all bacteria codes tested; settings: ten bacteria codes of Table 1
Description: (§1) After creating desired ratios of various commensal skin bacteria in a healthy skin microbiome, 188 different carbohydrate sources were screened as the next step in determining potential prospects for skin microbiota balancing agents. The screening process was set up to determine which carbohydrate sources promoted commensal and/or pathogenic bacteria as well as to obtain individual and combinations of carbohydrate sources that could serve as microbiota balancing agents that can support or maintain the healthy proportions of commensal skin bacteria of Corynebacterium, Staphylococcus, and Micrococcus. The screening was conducted utilizing Biolog phenotype microarray plates (Hayward, Calif.). Table 1 provides a coded list of the commensal and pathogenic skin bacteria that the carbohydrates were screened against.
(§2) The Bacteria Codes B, D, E, I, and J are commensal bacteria and are shaded in Table 2 for references purposes. The bacteria codes were each placed in a carbon microarray plate and screened through the Carbohydrate Screening Test Method, as described in the Test Methods section herein. If a particular bacteria code utilized a specific carbohydrate source as described in the Carbohydrate Screening Test Method, then the corresponding cell in Table 2 was marked with a Y (short for “Yes”).
(§3) The study employed 10 representative skin bacteria; Staphylococcus epidermidis ATCC 14990, Staphylococcus epidermidis M23864:W2, Staphylococcus aureus ATCC 6538, Staphylococcus aureus ATCC 25904 (Newman), Pseudomonas aeruginosa ATCC 9027, Micrococcus luteus ATCC […], Micrococcus luteus SK58, Klebsiella pneumoniae ATCC BAA-2146, Corynebacterium amycolatum SK46, and Corynebacterium minutissimum ATCC 23348. Cultures were started from freezer bead stocks by placing a single bead into 20 mL of tryptic soy broth (TSB) for all organisms except C. amycolatum SK46 and C. minutissimum ATCC 23348, which were placed into brain heart infusion (BHI) broth. Cultures were grown for about 24 hr at 37° C. except M. luteus ATCC 49732 and M. luteus SK58, which were grown at 30° C. A passage of the culture was made using a sterile swab and streaked onto two M9*2 agar plates to prepare the incubated culture for the phenotype microarray pate according to Table 4. Plates were incubated for about 24 hr at 37° C. except for M. luteus ATCC 49732 and M. luteus SK58, which were incubated at 30° C. for 24 hr.
(§4) All cultures were harvested and washed before inoculation into the carbon microarray plate (BiOLOG, Hayward Calif.), with Biolog Plates PM1 and PM2 each having a source definition of Carbon. The bacteria on the M9*2 agar was suspended via agitation with an inoculating loop in 1 mL of M9*1 media for collection in a 1.7 mL micro centrifuge tube, as noted in Table 4. The bacteria was suspended again in M9*1 media, agitated, and collected into the same 1.7 mL microcentrifuge tube used in the previous step. The tube was centrifuged for 5 minutes at 4,000×G, supernatant decanted, the pellet was resuspended in 1 mL of M9*1 media, and vortex. This washing process was repeated for a total of 4 times.
A tenfold dilution in M9*1 media was performed using 1 mL of the washed bacterial culture.

[2] = test system: Klebsiella pneumoniae (ATCC BAA-2146); settings: Pathogenic; carbon microarray plate, OD 600 nm, 36 hr, 33° C.; positive = more than 0.05 OD units above zero; blank cell = not utilized
Description: as §1
Table 2 provides the results of screening various carbohydrate sources against the commensal and pathogenic bacteria codes listed in Table 1. The Bacteria Codes B, D, E, I, and J are commensal bacteria and are shaded in Table 2 for references purposes. The bacteria codes were each placed in a carbon microarray plate and screened through the Carbohydrate Screening Test Method, as described in the Test Methods section herein. If a particular bacteria code utilized a specific carbohydrate source as described in the Carbohydrate Screening Test Method, then the corresponding cell in Table 2 was marked with a Y (short for “Yes”). […] Many of the carbohydrate sources were utilized by both commensal and pathogenic bacteria, and as such, would not provide an advantage for selective growth of the commensal bacteria. However, some of the carbohydrate sources were only used by commensal bacteria and were identified for further testing as described herein.
as §3, §4
A tenfold dilution in M9*1 media was performed using 1 mL of the washed bacterial culture. Of the tenfold dilution 200 μL was placed in an untreated 96-well plate (Falcon, Pasadena Tx.) for an initial optical density (OD) reading at a wavelength of 600 nm. The OD was used to correlate to colony forming units (CFU) per milliliter by using linear regression lines for each organism. […]

[3] = test system: Staphylococcus epidermidis (M23864:W2); assay: Carbohydrate Screening Test Method (Biolog phenotype microarray), Bacteria Code J; settings: Commensal; carbon microarray plate, OD 600 nm, 36 hr, 33° C.; positive = more than 0.05 OD units above zero; blank cell = not utilized
Description: as §1, §2
(§5) To do so, the respective microarray data for the 79 carbohydrate sources was run through the GrowthRates 2.1 program to obtain growth parameters, such as growth rates and maximum yield data as described by the Belingham Research Institute, Hall, B. G., H. Acar and M. Barlow. 2014 Growth Rates Made Easy. Mol. Biol. Evol. 31:232-238 doi:10.1093/molbev/mst197. The max yield parameters generated were utilized to calculate ratios of tested commensal bacteria. The ratios calculated were compared back to the desired ratios identified above (Corynebacterium to Staphylococcus of 1.3, Corynebacterium to Micrococcus of 1.4, and Staphylococcus to Micrococcus of 1.1).
(§6) As an example of this methodology used to calculate the commensal bacteria ratios and the difference between the calculated ratios and the desired ratios, an example code from Table 3 will be described. […] The max yields were then used to calculate ratios the bacteria would reach in a co-culture.

[4] = test system: Corynebacterium jeikum (ATCC 33033); assay: Carbohydrate Screening Test Method (Biolog phenotype microarray), Bacteria Code B; settings: Commensal; carbon microarray plate, OD 600 nm, 36 hr, 33° C.; positive = more than 0.05 OD units above zero; blank cell = not utilized
Procedure: as §1, with “The” for “After creating desired ratios of various commensal skin bacteria in a healthy skin microbiome, 188 different carbohydrate sources were screened as the next step in determining potential prospects for skin microbiota balancing agents. The”
as §2
as §5, with “2014 Growth Rates Made Easy.” left out, “31:232-238 doi:10.1093/molbev/mst197.” left out
as §6
A passage of the culture was made using a sterile swab and streaked onto two M9*2 agar plates to prepare the incubated culture for the phenotype microarray pate according to Table 4.
All cultures were harvested and washed before inoculation into the carbon microarray plate (BiOLOG, Hayward Calif.), with Biolog Plates PM1 and PM2 each having a source definition of Carbon. The bacteria on the M9*2 agar was suspended via agitation with an inoculating loop in 1 mL of M9*1 media for collection in a 1.7 mL micro centrifuge tube, as noted in Table 4.

[5] = test system: Micrococcus luteus (SK58); assay: Carbohydrate Screening Test Method (Biolog phenotype microarray), Bacteria Code E; settings: Commensal; carbon microarray plate, OD 600 nm, 36 hr, 33° C.; positive = more than 0.05 OD units above zero; blank cell = not utilized
Description: as §1, §2, §5, §6

[6] = test system: Pseudomonas aeruginosa (ATCC 9027); settings: Pathogenic; carbon microarray plate, OD 600 nm, 36 hr, 33° C.; positive = more than 0.05 OD units above zero; blank cell = not utilized
Description: as §1, §2, §3, §4
A tenfold dilution in M9*1 media was performed using 1 mL of the washed bacterial culture. Of the tenfold dilution 200 μL was placed in an untreated 96-well plate (Falcon, Pasadena Tx.) for an initial optical density (OD) reading at a wavelength of 600 nm. The OD was used to correlate to colony forming units (CFU) per milliliter by using linear regression lines for each organism.

Molecule	utilization by the bacteria codes tested [1]	Carbohydrate Screening Results, Bacteria Code J [3]	other results
O=C(O)CCCO [y-Hydroxy Butyric Acid]	not utilized by any of the bacteria		
NCCCC[C@H](N)C(=O)O [L-Lysine]	not utilized by any of the bacteria		
Dextrin		Y	Carbohydrate Screening Results, Bacteria Code C [2]: Y
O=C[C@H](O)[C@H](O)[C@H](O)CO [D-Ribose]	not utilized by any of the bacteria		
OCC(O)CO [Glycerol]		Y	Carbohydrate Screening Results, Bacteria Code B [4]: Y; Carbohydrate Screening Results, Bacteria Code C [2]: Y
O=C(CO)[C@@H](O)[C@H](O)[C@@H](O)C(=O)O [5-Keto-D-Gluconic Acid]	not utilized by any of the bacteria		
O=C(O)c1ccccc1O [2-Hydroxy Benzoic Acid]	not utilized by any of the bacteria		
Mannan		Y	
O=C[C@@H](O)[C@H](O)[C@@H](O)[C@@H](O)CO [L-Glucose]	not utilized by any of the bacteria		
CC(=O)N[C@@H](CO)[C@@H](O)[C@H](O)[C@H](O)CO [N-Acetyl-D-Glucosaminitol]		Y	
O=C(O)[C@H](O)[C@@H](O)[C@H](O)[C@H](O)CO [D-Gluconic Acid]		Y	Carbohydrate Screening Results, Bacteria Code B [4]: Y; Carbohydrate Screening Results, Bacteria Code C [2]: Y; Carbohydrate Screening Results, Bacteria Code E [5]: Y; Carbohydrate Screening Results, Bacteria Code F [6]: Y
O=C[C@H](O)[C@@H](O)[C@@H](O)[C@H](O)CO [D-Galactose]		Y	Carbohydrate Screening Results, Bacteria Code B [4]: Y; Carbohydrate Screening Results, Bacteria Code C [2]: Y; Carbohydrate Screening Results, Bacteria Code E [5]: Y; Carbohydrate Screening Results, Bacteria Code F [6]: Y
CC(=O)N[C@H]1[C@H]([C@H](O)[C@H](O)CO)OC(O)(C(=O)O)C[C@@H]1O (stereo partly drawn) [N-Acetyl-Neuraminic Acid]	not utilized by any of the bacteria		
NCC(=O)N1CCC[C@H]1C(=O)O [Glycyl-L-Proline] (H-Gly-Pro-OH)	not utilized by any of the bacteria		
CCCC(=O)C(=O)O [α-Keto-Valeric Acid]	not utilized by any of the bacteria		
O=C[C@H](O)[C@H](O)[C@@H](O)CO [L-Lyxose]	not utilized by any of the bacteria		

Molecule	utilization by the bacteria codes tested [1]	Carbohydrate Screening Results, Bacteria Code J [3]	other results
O=C(CO)[C@@H](O)[C@@H](O)[C@H](O)CO [D-Tagatose]	not utilized by any of the bacteria		
NCCCCC(=O)O [δ-Amino Valeric Acid]		Y	
O=C(O)[C@@H](O)[C@H](O)C(=O)O [D-Tartaric Acid]	not utilized by any of the bacteria		
OC[C@@H](O)[C@@H](O)CO [i-Erythritol]	not utilized by any of the bacteria		
CC(C)[C@H](N)C(=O)O [L-Valine]	not utilized by any of the bacteria		
O=P(O)(O)OCC(O)CO (racemic) [D,L-α-Glycerol-Phosphate]		Y	Carbohydrate Screening Results, Bacteria Code B [4]: Y; Carbohydrate Screening Results, Bacteria Code E [5]: Y
CO[C@H]1O[C@H](CO)[C@@H](O)[C@H](O)[C@H]1O [α-Methyl-D-Glucoside]	not utilized by any of the bacteria		
N[C@H](CO)C(=O)O [D-Serine]	not utilized by any of the bacteria		
OC[C@@]12OC[C@@H](O1)[C@@H](O)[C@@H](O)[C@@H]2O [Sedoheptulosan]	not utilized by any of the bacteria		
COC1OCC(O)C(O)C1O [β-Methyl-D-Xyloside]	not utilized by any of the bacteria		
Laminarin	not utilized by any of the bacteria		
C[C@@H](O)[C@H](O)[C@H](O)[C@@H](O)C=O [D-Fucose]	not utilized by any of the bacteria		
Glycogen	not utilized by any of the bacteria		
C[N+](C)(C)CC(O)CC(=O)[O-] (racemic) [D,L-Carnitine]		Y	Carbohydrate Screening Results, Bacteria Code F [6]: Y
OC[C@H]1O[C@@H]2O[C@H]3[C@H](O)[C@@H](O)[C@@H](O[C@H]4[C@H](O)[C@@H](O)[C@@H](O[C@H]5[C@H](O)[C@@H](O)[C@@H](O[C@H]6[C@H](O)[C@@H](O)[C@@H](O[C@H]7[C@H](O)[C@@H](O)[C@@H](O[C@H]8[C@H](O)[C@@H](O)[C@@H](O[C@H]9[C@H](O)[C@@H](O)[C@@H](O[C@H]1[C@H](O)[C@H]2O)O[C@@H]9CO)O[C@@H]8CO)O[C@@H]7CO)O[C@@H]6CO)O[C@@H]5CO)O[C@@H]4CO)O[C@@H]3CO [γ-Cyclodextrin]		Y	
NCC(O)c1ccc(O)cc1 [D.L-Octopamine]		Y	Carbohydrate Screening Results, Bacteria Code C [2]: Y; Carbohydrate Screening Results, Bacteria Code F [6]: Y
